Test results as given in PubChem BioAssay (NCI).
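Dose response: 5 concentrations. Exposure: 48 h. Format: 96-well plates. Endpoint: linear interpolation; highest concentration if not reached. Here, GI50 denotes the concentration required for 50% inhibition of growth. The concentration for full growth arrest is given as TGI.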

How the values were obtained:
Experiment in all cases: NCI-60 cell line screen, 48 h
OVCAR-4 ovarian = system: OVCAR-4 ovarian
HL-60(TB) leukemia = system: HL-60(TB) leukemia
UACC-62 melanoma = system: UACC-62 melanoma
NCI-H460 lung = system: NCI-H460 lung
HCT-116 colon = system: HCT-116 colon
TK-10 renal = system: TK-10 renal
MALME-3M melanoma = system: MALME-3M melanoma
NCI-H226 lung = system: NCI-H226 lung
NCI/ADR-RES ovarian = system: NCI/ADR-RES ovarian
CCRF-CEM leukemia = system: CCRF-CEM leukemia
DU-145 prostate = system: DU-145 prostate
NCI-H23 lung = system: NCI-H23 lung
U251 CNS = system: U251 CNS
CAKI-1 renal = system: CAKI-1 renal
K-562 leukemia = system: K-562 leukemia
LOX IMVI melanoma = system: LOX IMVI melanoma
MOLT-4 leukemia = system: MOLT-4 leukemia
RXF 393 renal = system: RXF 393 renal
A549 NSCLC = system: A549 NSCLC
SNB-75 CNS = system: SNB-75 CNS
SK-MEL-5 melanoma = system: SK-MEL-5 melanoma
ACHN renal = system: ACHN renal
SF-539 CNS = system: SF-539 CNS
EKVX NSCLC = system: EKVX NSCLC
MDA-MB-435 = system: MDA-MB-435
M14 melanoma = system: M14 melanoma
HCC-2998 colon = system: HCC-2998 colon
SF-295 CNS = system: SF-295 CNS
HOP-62 NSCLC = system: HOP-62 NSCLC
A498 renal = system: A498 renal
KM12 colon = system: KM12 colon
OVCAR-5 ovarian = system: OVCAR-5 ovarian
SR leukemia = system: SR leukemia
MCF7 breast = system: MCF7 breast
SF-268 CNS = system: SF-268 CNS
BT-549 breast = system: BT-549 breast
MDA-MB-231 breast = system: MDA-MB-231 breast
RPMI-8226 leukemia = system: RPMI-8226 leukemia
HT29 colon = system: HT29 colon
OVCAR-8 ovarian = system: OVCAR-8 ovarian
OVCAR-3 ovarian = system: OVCAR-3 ovarian
SK-OV-3 ovarian = system: SK-OV-3 ovarian
T-47D breast = system: T-47D breast
SN12C renal = system: SN12C renal
COLO 205 colon = system: COLO 205 colon
SW-620 colon = system: SW-620 colon
IGROV1 ovarian = system: IGROV1 ovarian
SK-MEL-28 melanoma = system: SK-MEL-28 melanoma
UO-31 renal = system: UO-31 renal
HCT-15 colon = system: HCT-15 colon
HOP-92 NSCLC = system: HOP-92 NSCLC
NCI-H522 lung = system: NCI-H522 lung
SK-MEL-2 melanoma = system: SK-MEL-2 melanoma
786-0 renal = system: 786-0 renal
UACC-257 melanoma = system: UACC-257 melanoma
PC-3 prostate = system: PC-3 prostate
SNB-19 CNS = system: SNB-19 CNS
HS 578T breast = system: HS 578T breast

C=C(C)[C@@H]1CC[C@]2(CNCCO)CC[C@]3(C)[C@H](CC[C@@H]4[C@@]5(C)CCC(N)[C@@](C)(CO)[C@@H]5CC[C@]43C)[C@@H]12 (some centres undefined)
GI50 (OVCAR-4 ovarian): 1.9 µM | TGI (OVCAR-4 ovarian): 3.99 µM | GI50 (HL-60(TB) leukemia): 1.33 µM | TGI (HL-60(TB) leukemia): 3.46 µM | GI50 (UACC-62 melanoma): 1.77 µM | TGI (UACC-62 melanoma): 3.19 µM | GI50 (NCI-H460 lung): 1.77 µM | TGI (NCI-H460 lung): 3.36 µM | GI50 (HCT-116 colon): 1.55 µM | TGI (HCT-116 colon): 2.96 µM | GI50 (TK-10 renal): 1.74 µM | TGI (TK-10 renal): 3.2 µM | GI50 (MALME-3M melanoma): 1.8 µM | TGI (MALME-3M melanoma): 3.31 µM | GI50 (NCI-H226 lung): 2.13 µM | TGI (NCI-H226 lung): 5.48 µM | GI50 (NCI/ADR-RES ovarian): 12.9 µM | TGI (NCI/ADR-RES ovarian): 26.7 µM | GI50 (CCRF-CEM leukemia): 2.17 µM | TGI (CCRF-CEM leukemia): 5.3 µM | GI50 (DU-145 prostate): 1.65 µM | TGI (DU-145 prostate): 3.18 µM | GI50 (NCI-H23 lung): 2.14 µM | TGI (NCI-H23 lung): 3.95 µM | GI50 (U251 CNS): 1.69 µM | TGI (U251 CNS): 3.16 µM | GI50 (CAKI-1 renal): 2.85 µM | TGI (CAKI-1 renal): 7.82 µM | GI50 (K-562 leukemia): 1.5 µM | TGI (K-562 leukemia): 3.7 µM | GI50 (LOX IMVI melanoma): 1.64 µM | TGI (LOX IMVI melanoma): 3.1 µM | GI50 (MOLT-4 leukemia): 1.56 µM | TGI (MOLT-4 leukemia): 3.85 µM | GI50 (RXF 393 renal): 1.29 µM | TGI (RXF 393 renal): 2.62 µM | GI50 (A549 NSCLC): 1.8 µM | TGI (A549 NSCLC): 3.38 µM | GI50 (SNB-75 CNS): 1.58 µM | TGI (SNB-75 CNS): 3.1 µM | GI50 (SK-MEL-5 melanoma): 1.74 µM | TGI (SK-MEL-5 melanoma): 3.14 µM | GI50 (ACHN renal): 1.99 µM | TGI (ACHN renal): 3.61 µM | GI50 (SF-539 CNS): 1.77 µM | TGI (SF-539 CNS): 3.27 µM | GI50 (EKVX NSCLC): 1.75 µM | TGI (EKVX NSCLC): 3.38 µM | GI50 (MDA-MB-435): 1.75 µM | TGI (MDA-MB-435): 3.25 µM | GI50 (M14 melanoma): 1.75 µM | TGI (M14 melanoma): 3.31 µM | GI50 (HCC-2998 colon): 1.83 µM | TGI (HCC-2998 colon): 3.35 µM | GI50 (SF-295 CNS): 1.76 µM | TGI (SF-295 CNS): 3.33 µM | GI50 (HOP-62 NSCLC): 1.79 µM | TGI (HOP-62 NSCLC): 3.28 µM | GI50 (A498 renal): 1.36 µM | TGI (A498 renal): 2.85 µM | GI50 (KM12 colon): 1.71 µM | TGI (KM12 colon): 3.21 µM | GI50 (OVCAR-5 ovarian): 2.3 µM | TGI (OVCAR-5 ovarian): 4.79 µM | GI50 (SR leukemia): 1.68 µM | TGI (SR leukemia): 4.08 µM | GI50 (MCF7 breast): 1.6 µM | TGI (MCF7 breast): 3.17 µM | GI50 (SF-268 CNS): 1.75 µM | TGI (SF-268 CNS): 3.46 µM | GI50 (BT-549 breast): 1.74 µM | TGI (BT-549 breast): 3.33 µM | GI50 (MDA-MB-231 breast): 1.86 µM | TGI (MDA-MB-231 breast): 3.44 µM | GI50 (RPMI-8226 leukemia): 1.65 µM | TGI (RPMI-8226 leukemia): 3.91 µM | GI50 (HT29 colon): 1.46 µM | TGI (HT29 colon): 3.18 µM | GI50 (OVCAR-8 ovarian): 1.76 µM | TGI (OVCAR-8 ovarian): 3.39 µM | GI50 (OVCAR-3 ovarian): 1.75 µM | TGI (OVCAR-3 ovarian): 3.29 µM | GI50 (SK-OV-3 ovarian): 1.95 µM | TGI (SK-OV-3 ovarian): 3.41 µM | GI50 (T-47D breast): 2.07 µM | TGI (T-47D breast): 3.97 µM | GI50 (SN12C renal): 1.75 µM | TGI (SN12C renal): 3.41 µM | GI50 (COLO 205 colon): 1.59 µM | TGI (COLO 205 colon): 3.08 µM | GI50 (SW-620 colon): 1.93 µM | TGI (SW-620 colon): 3.88 µM | GI50 (IGROV1 ovarian): 1.98 µM | TGI (IGROV1 ovarian): 4.09 µM | GI50 (SK-MEL-28 melanoma): 1.84 µM | TGI (SK-MEL-28 melanoma): 3.38 µM | GI50 (UO-31 renal): 1.65 µM | TGI (UO-31 renal): 3.07 µM | GI50 (HCT-15 colon): 1.8 µM | TGI (HCT-15 colon): 3.57 µM | GI50 (HOP-92 NSCLC): 1.43 µM | TGI (HOP-92 NSCLC): 2.94 µM | GI50 (NCI-H522 lung): 1.95 µM | TGI (NCI-H522 lung): 3.69 µM | GI50 (SK-MEL-2 melanoma): 1.77 µM | TGI (SK-MEL-2 melanoma): 3.27 µM | GI50 (786-0 renal): 1.68 µM | TGI (786-0 renal): 3.11 µM | GI50 (UACC-257 melanoma): 1.85 µM | TGI (UACC-257 melanoma): 3.39 µM | GI50 (PC-3 prostate): 1.73 µM | TGI (PC-3 prostate): 3.62 µM | GI50 (SNB-19 CNS): 1.83 µM | TGI (SNB-19 CNS): 3.36 µM

Cc1ncc([N+](=O)[O-])n1CC(O)Cn1ccnc1[N+](=O)[O-] (centres undefined)
TGI (HL-60(TB) leukemia): > 100 µM | TGI (NCI-H460 lung): > 100 µM | TGI (HCT-116 colon): > 100 µM | TGI (TK-10 renal): > 100 µM | TGI (MALME-3M melanoma): > 100 µM | TGI (NCI-H226 lung): > 100 µM | TGI (CCRF-CEM leukemia): > 100 µM | TGI (NCI-H23 lung): > 100 µM | TGI (U251 CNS): > 100 µM | TGI (K-562 leukemia): > 100 µM | TGI (MOLT-4 leukemia): > 100 µM | TGI (A549 NSCLC): > 100 µM | TGI (SNB-75 CNS): > 100 µM | TGI (HS 578T breast): > 100 µM | TGI (SK-MEL-5 melanoma): > 100 µM | TGI (ACHN renal): > 100 µM | TGI (SF-539 CNS): > 100 µM | TGI (EKVX NSCLC): > 100 µM | TGI (HCC-2998 colon): > 100 µM | TGI (SF-295 CNS): > 100 µM | TGI (HOP-62 NSCLC): > 100 µM | TGI (A498 renal): > 100 µM | TGI (KM12 colon): > 100 µM | TGI (OVCAR-5 ovarian): > 100 µM | TGI (SR leukemia): > 100 µM | TGI (MCF7 breast): > 100 µM | TGI (SF-268 CNS): > 100 µM | TGI (RPMI-8226 leukemia): > 100 µM | TGI (HT29 colon): > 100 µM | TGI (OVCAR-8 ovarian): > 100 µM | TGI (OVCAR-3 ovarian): > 100 µM | TGI (SN12C renal): > 100 µM | TGI (SW-620 colon): > 100 µM | TGI (SK-MEL-28 melanoma): > 100 µM | TGI (HCT-15 colon): > 100 µM | TGI (NCI-H522 lung): > 100 µM | TGI (SK-MEL-2 melanoma): > 100 µM | TGI (786-0 renal): > 100 µM | TGI (UACC-257 melanoma): > 100 µM | TGI (PC-3 prostate): > 100 µM
